Key:
[1] = system: Sprague-Dawley rats, STZ diabetic nephropathy; assay: Rat model of diabetic nephropathy (STZ, high fat diet); format: in vivo; conditions: Losartan 25 mg/kg po daily
Method: Losartan has been used as a positive control. Seventy-four male Sprague-Dawley rats (200-250 g; including 4 spare animals) from Charles River (Margate, Kent) were used. Rats were housed in pairs in polypropylene cages with free access to a high fat diet (D12492 60% of kcal derived from fat) and tap water at all times. The diet has been purchased from Research Diets, New Jersey, USA. All animals have been maintained at 21±4° C. and 55±20% humidity on a normal light (lights on: 07:00-19:00). […] About 40 animals have been assigned to Cohort A and the remaining 30 to Cohort B, balanced as far as possible for body weight, plasma glucose and food and water intake. […] In all groups, food and water intake have been determined twice weekly (on the day of iv dosing and on water refill days. Blood glucose has been determined monthly. Samples were collected as detailed previously by glucometer (One Touch Ultra2). Blood samples have been taken in the freely fed state (beginning at approx. 09:00). Animals have been dosed immediately afterwards by the respective route to a timed schedule. Subsequent to dosing, each animal has been placed in a metabolism cage with free access to food and water for a 24 h period. To reduce evaporation, the glass urine collectors have been placed in a polystyrene container (Sca-online, UK) which was filled with ice. […] Food consumed and water drunk has also been calculated. […]

[2] = Phase II trial, safety and tolerability (adverse events)
Method: The criteria for evaluation of safety were:
An AE is therefore any unfavorable and unintended sign, symptom or disease temporally associated with the use of a medicinal product, whether or not considered related to the medicinal product.
Patients were analyzed as treated, i.e. according to the treatment which they received. The safety set was the primary analysis set for the safety analysis.
The present study was a double-blind study. All patients who were randomized and for whom the sub-conjunctival injection was started are included in the safety analysis by dose group. […] If the study treatment eye drops were stopped prematurely (i.e. before day 21), the patients concerned continued follow-up until day 28, in accordance with the study protocol.
Investigators assessed (in a blinded manner) the relationship of each reported AE to any of the study treatments. An event was considered to be related to study treatment if the Investigator ticked either ‘possible’ or ‘probable’ as the reply to this question.

[3] = system: post-operative intraocular inflammation; conditions: Dexamethasone (N = 50)
Method: The objectives of the SDD-1002-035 study were to evaluate the efficacy and safety of a single sub-conjunctival injection of XG-102 90 or 900 μg administered within maximally 3 hours after the end of the surgical procedure compared to dexamethasone eye drops administered 4 times/day for 21 days in post-operative intraocular inflammation.
In accordance with this trial's primary objective, the primary outcome was evaluated by the mean anterior chamber cells grade at day 28 post-administration of the sub-conjunctival injection of study treatment comparing XG-102 900 μg with dexamethasone eye drops.
The present trial was a randomized (1:1:1), controlled, double-blind, multicenter non-inferiority clinical trial with three parallel groups of equal size. Randomization, which was blocked by center, was performed using a web-based, secure, randomization system. […]
The primary objective was evaluated by the mean anterior chamber cells grade at day 28 post-administration of the sub-conjunctival administration of study treatment. […]

| SMILES | body weight [1] | Adverse events which led to an interruption of study treatment ([2]; Dexamethasone dose group) | patients with Intraocular pressure increased ([2]; dexamethasone) [%] | percentage of patients who experienced an AE within 24 hours ([2]; dexamethasone group) [%] | Premature withdrawal of study tx eye drops, # patients (%) [3] |
| --- | --- | --- | --- | --- | --- |
| CCCCc1nc(Cl)c(CO)n1Cc1ccc(-c2ccccc2-c2nn[nH]n2)cc1 [Losartan] | significantly lower |  |  |  |  |
| C[C@@H]1C[C@H]2[C@@H]3CCC4=CC(=O)C=C[C@]4(C)[C@@]3(F)[C@@H](O)C[C@]2(C)[C@@]1(O)C(=O)CO [dexamethasone, reference compound] |  | 3 (5.5%) number of events (%) | 14 | 30 | 3 (6.0%) |

From patent US10624948B2, “Use of cell-permeable peptide inhibitors of the JNK signal transduction pathway for the treatment of various diseases” (Xigen Inflammation Ltd., priority 2013, dated 2020)
